# Test results reported in ChEMBL document CHEMBL6103557, “Novel Pyrrolidinone Urea Compounds as FPR2 Agonists for Treating Atherosclerosis and Heart Failure” (ACS Med Chem Lett, 2024).
# Target: T1, N-formyl peptide receptor 2 (Homo sapiens, UniProt P25090)
# T1 sequence (P25090 whole entry): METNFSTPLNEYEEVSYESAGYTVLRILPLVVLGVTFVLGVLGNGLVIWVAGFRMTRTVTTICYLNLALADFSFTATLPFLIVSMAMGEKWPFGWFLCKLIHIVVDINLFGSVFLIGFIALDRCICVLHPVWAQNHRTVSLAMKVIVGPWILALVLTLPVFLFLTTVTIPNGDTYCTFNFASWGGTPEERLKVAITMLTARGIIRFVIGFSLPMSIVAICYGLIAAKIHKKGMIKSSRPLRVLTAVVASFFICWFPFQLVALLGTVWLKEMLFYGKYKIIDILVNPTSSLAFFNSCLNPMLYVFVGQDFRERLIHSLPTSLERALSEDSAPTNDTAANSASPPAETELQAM
# Assay: Agonist activity at human FPR2 expressed in forskolin/IBMX-treated CHO cells incubated for 30 mins by HTRF HiRange cAMP assay
# Type: functional, cell-based
row,EC50 [pM],Structure (SMILES)
1,510,CC(C)(O)C1CCCN1c1cc(F)c(N2CCC(NC(=O)Nc3ccc(Cl)cc3F)C2=O)c(F)c1 (stereo unspecified)
2,700,O=C(Nc1ccc(Cl)cc1F)N[C@@H]1C[C@@H](CO)N(c2ccc(N3CCC(C(F)F)C3)c(F)c2F)C1=O (stereo partly specified)
3,140,O=C(Nc1ccc(Cl)cc1F)N[C@@H]1C[C@@H](CO)N(c2ccc(N3CCC(C(F)(F)F)C3)c(F)c2F)C1=O (stereo partly specified)
4,100,CN(C)[C@@H]1CCN(c2ccc(N3CC[C@@H](NC(=O)Nc4ccc(C(F)(F)F)cc4F)C3=O)c(F)c2F)C1
5,740,O=C(Nc1ccc(Cl)cc1F)N[C@@H]1CCN(c2ccc(N3CCC(CO)C3)c(F)c2F)C1=O (stereo partly specified)
6,710,CN(C)[C@H]1CN(c2ccc(N3CC[C@@H](NC(=O)Nc4ccc(Cl)cc4F)C3=O)c(F)c2F)C[C@H]1F
